Assay results: US7407772B2, “Screening and selection methods for statin drug combinations” (Merck & Co., Inc., priority 2001, dated 2008)
Entries after “also recorded” stand apart in the source; their conditions may differ. Where two headings read alike, the source gives them in different places. Blank lines part the entries; values can stand above or below the compound they belong to.

What was measured:
[1] = system: CYP3A (SVA, AVA); CYP3A and CYP2C8 (CVA); test: in vitro; conditions: human, human liver microsomes, pH 7.4
Experimental: For oxidative metabolism studies, a typical incubation mixture, in a final volume of 0.5 mL, contained 0.1-0.25 mg liver microsomal protein, 0.1M sodium phosphate buffer (pH 7.4), 10 mM MgCl2, and 1 mM NADPH. […] Incubations were conducted at 37° C. and were terminated after 10-20 min (with NADPH) by the addition of ACN (acetonitrile). The ACN extracts were evaporated to dryness and reconstituted for analysis by HPLC with UV detection.
In brief, samples, held in an autosampler set at 5° C., were chromatographed on either a Betasil C18 (250×4.6 mm, 5 μm) or a Zorbax C18 (Waters, 150×4.6 mm, 5 μm) column, preceded by a C18 guard column, with a linear gradient of acetonitrile in 10 or 25 mM ammonium acetate, pH 4.5. […] Due to unavailability of authentic standards for oxidative metabolites of statins, quantitation of these metabolites in the in vitro incubation mixtures was accomplished using standard curves for their respective statins, assuming identical extraction recoveries and extinction coefficients between the parent drug and its corresponding metabolites.

human liver microsomes [2] = test: Glucuronidation assay: statin glucuronidation in human liver microsomes; type: in vitro ADME; conditions: preliminary data
Experimental: (§5) The term “glucuronidation assay” as used herein refers to the following assay when performed with human liver microsomes. […] Unless otherwise specified, the reaction was started by the addition of statins following a 3-min pre-incubation at 37° C., and the reaction was incubated for 45-60 min. Control experiments included incubation mixtures with either microsomes or UDPGA missing. The reaction was terminated, at appropriate time intervals, by the addition of 0.8 ml acetonitrile (ACN). […] The ability of statins to undergo glucuronidation was measured by formation of statin glucuronide and statin lactones, and expressed in term of intrinsic clearance (Clint). The CLint was estimated by dividing Vmax by apparent Km. The Km and Vmax values were estimated using a nonlinear regression program, based on a Michealis-Menten equation as follow: V=Vmax×C/(Km+C); V=formation rate of statin glucuronide+lactone, and C=substrate concentration. Incubations were performed in triplicate for human liver microsomes (pooled from n=10) or UGTs at 250-μM substrate concentration. Values are mean±SD (n=3 to 5).

[3] = as above; type: in vitro ADME; conditions: human, pH 7, read-out: intrinsic clearance of glucuronidation
Experimental: as §5

[4] = system: human recombinant UGT isoforms; test: UGT-specific glucuronidation assay, identification of responsible isoforms; type: in vitro ADME
Experimental: To examine UGT isoforms responsible for the glucuronidation of statins, incubations with various human recombinant UGT isoforms were performed using the same conditions as described herein for human liver microsomes in Example 1, except that the mixture contained 0.3 mg UGTs and was incubated for up to 60 min.

[5] = cited from earlier work; for Cmax: reported values following 600 mg bid gemfibrozil or 200 mg qd fenofibrate in humans; for increase of plasma AUC by gemfibrozil: humans, multiple oral doses of gemfibrozil, single oral dose of simvastatin or lovastatin
[6] = Pharmacokinetics after oral simvastatin in dogs pretreated with vehicle, gemfibrozil or fenofibrate; conditions: dog, in vivo
[7] = system: glucuronidation of simvastatin acid (UDPGA-dependent); test: Inhibition of simvastatin acid glucuronidation in dog liver microsomes; type: in vitro ADME; conditions: pH 7, probe simvastatin acid (10-20 μM)
Experimental: A typical incubation mixture, in a final volume of 0.3 ml, contained 0.45 mg human or animal liver microsomes, preincubated with 0.045 mg Brij 58 (or 0.0225 mg alamethicin) for 15 min, 20 mM MgCl2, 5 mM UDPGA, and 0.05 M Tris buffer, pH 7.0.

[8] = dog, in vivo
[9] = system: oxidative metabolism of simvastatin acid (NADPH-dependent); test: Inhibition of simvastatin acid oxidation in dog liver microsomes; type: in vitro ADME; conditions: pH 7.4, probe simvastatin acid (10-20 μM)
human liver microsomes [10] = test: in vitro
Experimental: (§1) The term “glucuronidation inhibition assay” as used herein refers to the following assay when performed with human liver microsomes.
(§2) The effects of inhibitors on metabolism of the statins were expressed as percentages of metabolites (statin glucuronides and lactones) formed in the presence of inhibitors relative to the corresponding values obtained in the absence of inhibitors (control) on the same day.
(§3) Incubations were performed in triplicate for each concentration of inhibitors, and involved co-incubation of GFZ or ketoconazole (1 μM) with statins (10-20 μM) in the presence of NADPH (oxidation) or UDPGA (glucuronidation).

[11] = system: glucuronidation of SVA (UDPGA-dependent); test: in vitro; conditions: human, liver microsomes, pH 7, probe SVA (10-20 μM), IC50, SVA Glucuronidation, statin 10-20 μM, UDPGA
Experimental: as §1, §2, §3

[12] = system: glucuronidation of AVA (UDPGA-dependent); test: in vitro; conditions: human, liver microsomes, pH 7, probe AVA (10-20 μM), IC50, AVA Glucuronidation, statin 10-20 μM, UDPGA
Experimental: as §1, §2, §3

[13] = system: glucuronidation of RVA (UDPGA-dependent); test: in vitro; conditions: human, liver microsomes, pH 7, probe RVA (10-20 μM), IC50, RVA Glucuronidation, statin 10-20 μM, UDPGA
Experimental: as §1, §2, §3

[14] = system: glucuronidation of CVA (UDPGA-dependent); test: in vitro; conditions: human, liver microsomes, pH 7, probe CVA (10-20 μM), IC50, CVA Glucuronidation, statin 10-20 μM, UDPGA
Experimental: as §1, §2, §3

CYP3A4 = molecular target: T1, CYP3A4 (Homo sapiens, UniProt P08684); conditions: human liver microsomes; cited from earlier work
T1 construct: in human liver microsomes, an in vitro assay for determining hepatic CYP3A4 activity; host or cells: human liver microsomes

[15] = Ex vivo simvastatin hydrolysis in dog plasma; type: in vitro ADME
[16] = dog, in vivo, po
[17] = system: oxidation of CVA to hydroxylated metabolite M1; test: in vitro; conditions: human, pH 7.4
Experimental: (§4) The term “oxidation inhibition assay” as used herein refers to the following assay when performed with human liver microsomal protein.
as §3

[18] = system: CYP3A-mediated oxidation of SVA; test: in vitro; conditions: human, pH 7.4
Experimental: as §4, §3

[19] = system: oxidative metabolism of AVA (NADPH-dependent); test: in vitro; conditions: human, pH 7.4
Experimental: as §4, §3

[20] = system: oxidation of CVA to O-demethylated metabolite M2; test: in vitro; conditions: human, pH 7.4
Experimental: as §4, §3

[21] = Clinical pharmacokinetics in humans (literature); type: in vivo; conditions: at their respective therapeutic doses
[22] = system: oxidation of CVA to metabolite M2; test: in vitro; conditions: human, pH 7.4
Experimental: as §4, §3

[23] = system: oxidative metabolism of SVA (NADPH-dependent); test: in vitro; conditions: human, pH 7.4
Experimental: as §4, §3

[24] = system: oxidation of CVA to metabolite M1; test: in vitro; conditions: human, pH 7.4
Experimental: as §4, §3

[25] = system: oxidation of CVA (both oxidative metabolites); test: in vitro; conditions: human, pH 7.4
Experimental: as §4, §3

T1 sequence (P08684 whole entry): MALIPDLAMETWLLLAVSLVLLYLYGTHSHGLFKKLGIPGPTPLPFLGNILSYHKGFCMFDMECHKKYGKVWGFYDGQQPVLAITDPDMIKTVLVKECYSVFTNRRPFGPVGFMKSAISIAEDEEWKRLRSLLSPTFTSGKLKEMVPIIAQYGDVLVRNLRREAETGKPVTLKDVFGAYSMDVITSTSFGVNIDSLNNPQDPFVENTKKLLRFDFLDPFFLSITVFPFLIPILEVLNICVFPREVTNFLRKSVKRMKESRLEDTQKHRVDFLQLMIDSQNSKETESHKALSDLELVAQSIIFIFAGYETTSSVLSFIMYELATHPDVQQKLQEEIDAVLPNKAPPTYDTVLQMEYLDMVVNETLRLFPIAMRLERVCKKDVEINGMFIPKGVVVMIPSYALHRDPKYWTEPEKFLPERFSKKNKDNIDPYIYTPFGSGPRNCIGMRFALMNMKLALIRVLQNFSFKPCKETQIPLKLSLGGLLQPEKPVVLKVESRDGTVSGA

microsomal CLint [1]: 10 µL/min/mg | CLint, Glucuronidation (human liver microsomes [2]): 2.9 ul/min/mg protein | Relative Contribution of glucuronidation to overall metabolism (human liver microsomes [2]): 22 | microsomal CLint [3]: 2.9 µL/min/mg
SMILES: COCc1c(C(C)C)nc(C(C)C)c(/C=C/[C@@H](O)C[C@@H](O)CC(=O)O)c1-c1ccc(F)cc1 [CVA, cerivastatin]

Cmax ([6]; Cmax of fenofibric acid, fenofibrate treated): 77 ± 9.7 µM | IC50 [7]: 283 µM
SMILES: CC(C)(Oc1ccc(C(=O)c2ccc(Cl)cc2)cc1)C(=O)O [Fenofibric acid, fenofibric acid]

UGT isozymes catalyzing glucuronidation of the substance ([4]; listed as SVA): UGT1A1 and 1A3; also recorded: UGT1A10
SMILES: CCC(C)(C)C(=O)O[C@H]1C[C@@H](C)C=C2C=C[C@H](C)[C@H](CC[C@@H](O)C[C@@H](O)CC(=O)O)[C@H]21 [Simvastatin acid, simvastatin acid]
increase of plasma AUC by gemfibrozil [5]: 185%

Continued, compound first:

SMILES: CC(C)OC(=O)C(C)(C)Oc1ccc(C(=O)c2ccc(Cl)cc2)cc1 [Fenofibrate, fenofibrate]
UGT isozymes catalyzing glucuronidation of the substance [4]: UGT1A9 and isoforms of the UGT2B subfamily | Cmax [5]: 15 to 55 µM

SMILES: Cc1ccc(C)c(OCCCC(C)(C)C(=O)O)c1 [Gemfibrozil, gemfibrozil]
decrease in the biliary excretion of simvastatin-glucuronide [8]: ~2 fold | AUC(0-t) ([6]; po, 75 mg/kg, AUC 12 hr of gemfibrozil, gemfibrozil 75 mg/kg bid for 5 days): 1440 ± 176 µM·h | Cmax ([6]; po, 75 mg/kg, Cmax of gemfibrozil, gemfibrozil treated (75 mg/kg bid for 5 days)): 446 ± 66 µM | IC50 [9]: ~1000 µM | mode of inhibition of simvastatin acid glucuronidation (human liver microsomes [10]): competitive inhibition | IC50 (human liver microsomes [10]; read-out: IC50, AVA Glucuronidation, statin 10-20 μM, UDPGA): 316 µM | IC50 [11]: 354 µM | IC50 [12]: 314 µM | IC50 [13]: ~400 µM | IC50 [14]: 82 µM | effect on CYP3A4 mediated 1'-hydroxylation of midazolam (CYP3A4): no appreciable inhibitory effect | effect on ex vivo simvastatin hydrolysis [15]: Minimal effect | effect on ex vivo simvastatin hydrolysis ([15]; listed as gemfibrozil): did not affect | SVA/SV AUC ratio, Gem/vehicle [16]: 5.4 ± 2.1 | IC50 [17]: 87 µM | IC50 [18]: > 800 µM | IC50 [19]: > 750 µM | IC50 [20]: 220 µM | UGT isozymes catalyzing glucuronidation of the substance [4]: UGT1A1 and 1A3 | exposure in humans relative to fenofibrate/fenofibric acid [21]: > 2 fold | IC50 [7]: 195 µM | Cmax [5]: 100 to 300 µM

SMILES: CC(=O)N1CCN(c2ccc(OCC3COC(Cn4ccnc4)(c4ccc(Cl)cc4Cl)O3)cc2)CC1 (stereo not drawn) [Ketoconazole, ketoconazole]
inhibition at 1 µM [22]: ~50% | inhibition at 1 µM [19]: > 90% | inhibition at 1 µM [23]: > 85% | inhibition at 1 µM [24]: 68% | inhibition at 1 µM [25]: ≤ 50%

SMILES: CC[C@H](C)C(=O)O[C@H]1C[C@@H](C)C=C2C=C[C@H](C)[C@H](CC[C@@H](O)C[C@@H](O)CC(=O)O)[C@H]21 [lovastatin acid]
increase of plasma AUC by gemfibrozil [5]: 280%

SMILES: CC[C@H](C)C(=O)O[C@H]1C[C@@H](C)C=C2C=C[C@H](C)[C@H](CC[C@@H]3C[C@@H](O)CC(=O)O3)[C@H]21 [lovastatin lactone, lovastatin]
increase of plasma AUC by gemfibrozil [5]: no significant effect
